From ChEMBL document CHEMBL1146042, “Identification of metabolites of the tryptase inhibitor CRA-9249: observation of a metabolite derived from an unexpected hydroxylation pathway” (Bioorg Med Chem Lett, 2006)

Assays:
Tryptase = Tryptase (Homo sapiens, UniProt Q9BZJ3+Q15661+Q9NRR2); assay: Inhibition of mast cell tryptase; type: protein assay
[1] = Stability in mouse liver microsome after 3 hrs; type: ADME; conditions: liver microsomes, read-out: Stability
[2] = Stability in dog liver microsome after 3 hrs; type: ADME, Canis lupus familiaris; conditions: liver microsomes, read-out: Stability
[3] = Stability in human liver microsome after 3 hrs; type: ADME; conditions: liver microsomes, read-out: Stability
[4] = Stability in rat liver microsome after 3 hrs; type: ADME; conditions: liver microsomes, read-out: Stability
Macaca fascicularis = species on record: Macaca fascicularis; assay: Stability in cynomolgus monkey liver microsome after 3 hrs; conditions: liver microsomes

Ki (Tryptase) [µM]	Compound	also measured
0.3	Cn1c(C(F)(F)c2nc3c(F)cc(F)cc3[nH]2)nc2ccc(C(=O)NCCOc3ccc(F)cc3)cc21	remaining at 3 h [1]: < 10%; remaining at 3 h [2]: < 10%; remaining at 3 h [3]: < 10%; remaining at 3 h [4]: 56%; remaining at 3 h (Macaca fascicularis): < 10%
1.4	Cn1c(C(F)(F)c2nc3c(F)c(O)c(F)cc3[nH]2)nc2ccc(C(=O)NCCOc3ccc(F)cc3)cc21	
2.7	Cn1c(C(F)(F)c2nc3c(F)cc(F)cc3[nH]2)nc2ccc(C(N)=O)cc21	
7	Cn1c(C(F)(F)c2nc3c(F)cc(F)cc3[nH]2)nc2ccc(C(=O)NCCO)cc21	
0.034	Cn1c(C(F)(F)c2nc3c(F)cc(F)c(O)c3[nH]2)nc2ccc(C(=O)NCCOc3ccc(F)cc3)cc21	

Compound	Ki (Tryptase) [µM]	also measured
Cn1c(C(F)(F)c2nc3c(F)cc(F)cc3[nH]2)nc2ccc(C(=O)NC(O)COc3ccc(F)cc3)cc21 (stereo unspecified)	0.024	
